Experimental data published in US6140353A, “N-(4-carb-amimidophenyl)glycineamide derivatives” (Hoffmann-La Roche Inc., priority 1997, dated 2000).
Counter-ions that a name gives are not always drawn.

The compounds below were run against T1, factor VIIa/tissue factor complex (Homo sapiens, UniProt P08709) (assay: Inhibition of the amidolytic activity of the factor VIIa/tissue factor complex (chromogenic peptide substrate)). Conditions: chromogenic substrate Chromozym-tPA (3.5 mM), pH 7.5, room temperature, 15 minutes incubation, 10 minutes kinetic reading.
T1 construct: 9 nM of soluble factor VIIa
T1 sequence (P08709 213-466 limits assumed): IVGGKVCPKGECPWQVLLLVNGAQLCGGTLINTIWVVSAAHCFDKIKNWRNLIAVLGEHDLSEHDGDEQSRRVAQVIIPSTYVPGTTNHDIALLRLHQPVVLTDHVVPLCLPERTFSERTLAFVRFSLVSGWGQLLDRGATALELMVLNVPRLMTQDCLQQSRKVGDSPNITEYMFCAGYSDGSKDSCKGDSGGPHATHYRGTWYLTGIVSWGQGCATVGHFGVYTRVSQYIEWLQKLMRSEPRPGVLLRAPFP
T1 sequence (P08709 61-212 partner limits assumed): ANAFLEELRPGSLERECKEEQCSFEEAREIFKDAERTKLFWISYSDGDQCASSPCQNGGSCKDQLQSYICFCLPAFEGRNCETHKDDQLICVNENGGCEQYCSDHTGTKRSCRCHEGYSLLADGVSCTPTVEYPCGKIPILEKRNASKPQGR
T1 sequence (P13726 33-295 partner): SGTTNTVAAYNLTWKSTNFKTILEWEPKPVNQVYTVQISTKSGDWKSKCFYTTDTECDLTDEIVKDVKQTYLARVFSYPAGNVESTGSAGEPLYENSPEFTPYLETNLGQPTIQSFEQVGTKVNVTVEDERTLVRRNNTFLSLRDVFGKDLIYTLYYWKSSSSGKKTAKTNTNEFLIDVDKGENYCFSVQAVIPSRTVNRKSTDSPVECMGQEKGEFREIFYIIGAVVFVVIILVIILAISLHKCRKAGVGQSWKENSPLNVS
Type: biochemical
Description: The measurements were carried out on microtiter plates at room temperature. To this end, per well of the plate, 100 μl of a solution of 26 nM of tissue factor, 9 nM of soluble factor VIIa and 8 mM of calcium chloride were added to 25 μl of a solution of the inhibitor in a buffer [pH 7.5, 100 mM, comprising 0.14 M NaCl, 0.1 M N(2-hydroxyethyl)piperazine-N'-(2-ethanesulphonic acid) (HEPES), 0.5 mg/l of fatty-acid-free BSA (bovine serum albumin) and 0.05% NaN3 ]. After an incubation time of 15 minutes, the reaction was started by addition of 50 μl of chromogenic substrate Chromozym-tPA (3.5 mM, MeSO2 -D-Phe-Gly-Arg-paranitroanilide), and the hydrolysis of the substrate was followed spectrophotometrically on a kinetic microtiter plate reader over 10 minutes. Using the plot of the inhibition curves, the Ki values were determined according to the method described in Biochem. J., 55:170-171 (1953).

In order of rising Ki:
1. CCOc1cc(C(Nc2ccc(C(=N)N)cc2)C(=O)NCc2ccccc2)ccc1OCc1ccccc1 (racemic) [Example 5g, (R,S)-N-benzyl-2-(4-benzyloxy-3-ethoxyphenyl)-2-(4-carbamimidoylphenylamino)acetamide hydrochloride]  44 nM
2. COc1cc(C(Nc2ccc(C(=N)N)cc2)C(=O)NCc2ccccc2)ccc1OCc1ccccc1 (racemic) [Example 1, (R,S)-N-benzyl-2-(4-benzyloxy-3-methoxyphenyl)-2-(4-carbamimidoylphenylamino)acetamide hydrochloride]  50 nM
3. COc1cc(C(Nc2ccc(C(=N)N)cc2)C(=O)NCc2ccccc2)ccc1OCc1ccc2[nH]ccc2c1 (racemic) [Example 7e, (R,S)-N-benzyl-2-(4-carbamimidoylphenylamino)-2-[4-(1H-indol-5-ylmethoxy)-3-methoxyphenyl]acetamide acetate]  110 nM
4. CCOc1ccc(C(Nc2ccc(C(=N)N)cc2)C(=O)NCc2ccccc2)cc1OCC (racemic) [Example 5d, (R,S)-N-benzyl-2-(4-carbamimidoylphenylamino)-2-(3,4-diethoxyphenyl)acetamide hydrochloride]  110 nM
5. COc1cc(C(Nc2ccc(C(=N)N)cc2)C(=O)NCc2ccccc2)c(NS(=O)(=O)c2ccccc2)cc1O (stereo not shown) [Example 10, 2-(2-phenylsulphonylamino-4-hydroxy-5-methoxyphenyl)-N-benzyl-2-(4-carbamimidoylphenylamino)acetamide acetate]  112 nM
6. COc1cc(C(Nc2ccc(C(=N)N)cc2)C(=O)NCc2ccccc2)c(NS(=O)(=O)c2ccccc2)cc1OCc1ccccc1 (stereo not shown) [Example 8, 2-(2-phenylsulphonylamino-4-benzyloxy-5-methoxyphenyl)-N-benzyl-2-(4-carbamimidoylphenylamino)acetamide acetate]  150 nM
7. COc1ccc(C(Nc2ccc(C(=N)N)cc2)C(=O)NC(c2ccccc2)c2ccccc2)cc1OC (racemic) [Example 5c, (R,S)-N-benzhydryl-2-(4-carbamimidoylphenylamino)-2-(3,4-dimethoxyphenyl)acetamide hydrochloride]  160 nM
8. COc1cc(C(Nc2ccc(C(=N)N)cc2)C(=O)NCc2ccccc2)ccc1OCc1ccc2cnccc2c1 (racemic) [Example 7n]  170 nM
9. COc1cc(C(Nc2ccc(C(=N)N)cc2)C(=O)Nc2ccccc2)ccc1OCc1ccccc1 (racemic) [Example 7s, (R,S)-2-(4-benzyloxy-3-methoxyphenyl)-2-(4-carbamimidoylphenylamino)-N-phenylacetamide acetate]  170 nM
10. COc1cc(C(Nc2ccc(C(=N)N)cc2)C(=O)NCc2ccccc2)ccc1OCc1ccncc1 (stereo not shown) [Example 7a, N-benzyl-2-(4-carbamimidoylphenylamino)-2-[3-methoxy-4-(pyridin-4-ylmethoxy)phenyl]acetamide acetate]  190 nM
11. COc1cc(OC)cc(C(Nc2ccc(C(=N)N)cc2)C(=O)NCc2ccccc2)c1 (racemic) [Example 5b, (R,S)-N-benzyl-2-(4-carbamimidoylphenylamino)-2-(3,5-dimethoxyphenyl)acetamide hydrochloride]  190 nM
12. COc1cc(C(Nc2ccc(C(=N)N)cc2)C(=O)NCc2ccccc2)ccc1OCCc1ccccc1 (racemic) [Example 7h, (R,S)-N-benzyl-2-(4-carbamimidoylphenylamino)-2-[3-methoxy-4-phenethyloxyphenyl)acetamide acetate]  210 nM
13. COc1cccc(COc2ccc(C(Nc3ccc(C(=N)N)cc3)C(=O)NCc3ccccc3)cc2OC)c1 (racemic) [Example 6, (R,S)-N-benzyl-2-(4-carbamimidoylphenylamino)-2-[3-methoxy-4-(3-methoxybenzyloxy)phenyl]) acetamide acetate]  220 nM
14. COc1cc(C(Nc2ccc(C(=N)N)cc2)C(=O)NCc2ccccc2)ccc1OCc1ccc2c(c1)NCCC2 (racemic) [Example 7f, (R,S)-N-benzyl-2-(4-carbamimidoylphenylamino)-2-[3-methoxy-4-(1,2,3,4-tetrahydroquinolin-7-ylmethoxy)phenyl]acetamide acetate]  260 nM
15. COc1cc(C(Nc2ccc(C(=N)N)cc2)C(=O)NCc2ccccc2)cc(OC)c1OC (racemic) [Example 5a, (R,S)-N-benzyl-2-(4-carbamimidoylphenylamino)-2-(3,4,5-trimethoxyphenyl)acetamide hydrochloride]  280 nM
16. COc1ccc(C(Nc2ccc(C(=N)N)cc2)C(=O)NCc2ccccc2)cc1OC (racemic) [Example 2a, (R,S)-N-benzyl-2-(4-carbamimidoylphenylamino)-2-(3,4-dimethoxyphenyl)acetamide hydrochloride]  280 nM
